Key:
[1] = In vivo pharmacokinetic study in mice, oral ibrutinib (plasma, LC-MS/MS); settings: for AUC(0-t) / Cmax / bioavailability: plasma, po; for AUC(0-t): Ibrutinib AUC(0-last); for Cmax: Ibrutinib Cmax; for increase in ibrutinib AUC: male FVB wild-type mice; for systemic levels of ibrutinib: ibrutinib 10 mg/kg orally
Experimental: (§1) Experiments were performed with male and female mice from inbred wild-type strains (FVB, C57BL/6, DBA) or with age- and sex-matched genetically engineered mice with a deficiency of the Cyp3a locus [(8 genes; FVB.129P2-Cyp3a13^tm1Ahs Del (5Cyp3a57-Cyp3a59)1Ahs); ref. [16]; CYP3A^−/−], a deficiency of the intestinal transporter OATP2B1 (ref. [17]; OATP2B1 ^−/−), or the hepatic transporter OATP1B2 (ref. [18]; OATP1B2 ^−/−). […] The studies were approved by the University Laboratory Animal Resources Animal Care and Use Committee at The Ohio State University (Columbus, OH). […] For in vivo studies, drugs were prepared in standard vehicles ([19, 20]). Details regarding the preparation of drugs are provided in the Supplementary Methods.
(§2) Pharmacokinetic studies were performed as described previously ([21]). Further details are provided in the Supplementary Methods.
(§3) The lower limit of quantification was 5 ng/mL, using 5-μL sample volumes. Details regarding the analytic method are provided in the Supplementary Methods.
(§4) Ketoconazole was prepared for oral administration as a 10-mg/mL suspension in PEG400, and cobicistat as a 6-mg/mL suspension in corn oil.
(§5) Pharmacokinetic studies were performed as previously described.
The analytical equipment consisted of a Vanquish UHPLC system, a TSQ Quantum Ultra triple quadrupole mass spectrometer from Thermo Fisher Scientific, and Thermo Trace Finder General Quan system software (version 3.3). An Accucore Vanquish C18 column (100 × 2.1 mm, dp = 1.5 μm; Thermo Fisher Scientific) was protected by a corresponding XBridgeBEH C18, 5-μm guard column. The injection volume of sample was 5.0 μL. The temperature of the autosampler rack was 4 °C, and the temperature of the column was 40 °C. Mobile phase A consisted of water with 0.1% (v/v) formic acid and mobile phase B consisted of acetonitrile: methanol (1:3) with 0.1% (v/v) formic acid. The total run time was 5 min. The mobile phase was delivered at a flow rate of 0.4 mL/min, and the optimized gradient contained time-varying amounts of mobile phase B, as follows: 0-0.5 min, 10% B; 0.5-1.5 min, 95% B; 1.5-2.9 min, 95% B; 2.9-3.0 min, 10% B; and 3.0-5.0 min, 10% B. The mass spectrometric assay settings included a positive voltage applied to the ESI capillary of 3500 V, a capillary temperature of 342 °C, and a vaporizer temperature of 358 °C. Argon was used a collision gas at a pressure of 1.5 mTorr. […] For sample extraction by protein precipitation, 5 µL of plasma, 5 µL of microsomal suspension, or 10 µL of homogenized tissue were added to a tube containing 60 µL of internal standard solution and 20 µL of methanol. Samples were then vortex-mixed, centrifuged at 13,000 rpm for 9.5 min, and supernatants collected and stored frozen until analysis. […] The lower limit of quantification was 5 ng/mL, using 5-µL sample volumes.

[2] = In vivo pharmacokinetic study in mice, intravenous ibrutinib (plasma); settings: for AUC(0-t) / Cmax: female, FVB, mouse, plasma, iv, 1 mg/kg, ibrutinib 1 mg/kg IV, mean (SD); for AUC(0-t): Ibrutinib AUC(0-last); for Cmax: Ibrutinib Cmax
Experimental: as §1, §2, §3, §4, §5

[3] = population PK model estimate, mice
[4] = design: method as in earlier work; settings: acid dissociation constant; PBPK model parameter; ref [17, 18] and Drugbank; cited from earlier work
[5] = design: method as in earlier work; settings: unbound drug in the plasma; PBPK model parameter; ref [17, 18] and Drugbank; cited from earlier work
[6] = cited from earlier work
[7] = female, C57BL/6, mouse, 10 mg/kg, female OATP2B1(-/-) mice, ibrutinib 10 mg/kg PO, no co-treatment, mean (SD)
[8] = female, C57BL/6, mouse, 10 mg/kg, female wild-type C57BL/6 mice, ibrutinib 10 mg/kg PO, no co-treatment, mean (SD)
[9] = female, DBA, mouse, 10 mg/kg, female OATP1B2(-/-) mice, ibrutinib 10 mg/kg PO, no co-treatment, mean (SD)
[10] = female, DBA, mouse, 10 mg/kg, female wild-type DBA mice, ibrutinib 10 mg/kg PO, no co-treatment, mean (SD)
[11] = female, FVB, mouse, 4 mg/kg, female wild-type FVB mice, ibrutinib 4 mg/kg oral, cotreatment cobicistat 30 mg/kg, mean (SE)
[12] = female, FVB, mouse, 10 mg/kg, female CYP3A-/- mice, ibrutinib 10 mg/kg oral, cotreatment cobicistat 30 mg/kg, mean (SE)
[13] = female, FVB, mouse, 10 mg/kg, female CYP3A-/- mice, ibrutinib 10 mg/kg oral, cotreatment corn oil, mean (SE)
[14] = female, FVB, mouse, 10 mg/kg, female CYP3A-/- mice, ibrutinib 10 mg/kg oral, no cotreatment, mean (SE)
[15] = female, FVB, mouse, 10 mg/kg, female wild-type FVB mice, ibrutinib 10 mg/kg oral single dose, cotreatment cobicistat 30 mg/kg, mean (SE)
[16] = female, FVB, mouse, 10 mg/kg, female wild-type FVB mice, ibrutinib 10 mg/kg oral single dose, cotreatment corn oil, mean (SE)
[17] = female, FVB, mouse, 10 mg/kg, female wild-type FVB mice, ibrutinib 10 mg/kg oral, cotreatment PEG400, mean (SE)
[18] = female, FVB, mouse, 10 mg/kg, female wild-type FVB mice, ibrutinib 10 mg/kg oral, cotreatment cobicistat 30 mg/kg, steady-state, mean (SE)
[19] = female, FVB, mouse, 10 mg/kg, female wild-type FVB mice, ibrutinib 10 mg/kg oral, cotreatment corn oil, steady-state, mean (SE)
[20] = female, FVB, mouse, 10 mg/kg, female wild-type FVB mice, ibrutinib 10 mg/kg oral, cotreatment ketoconazole 50 mg/kg, mean (SE)
[21] = female, FVB, mouse, 10 mg/kg, female wild-type FVB mice, ibrutinib 10 mg/kg oral, no cotreatment, mean (SE)
[22] = female, FVB, mouse, 30 mg/kg, female wild-type FVB mice, ibrutinib 30 mg/kg oral, no cotreatment, mean (SE)
[23] = male, C57BL/6, mouse, 10 mg/kg, male OATP2B1(-/-) mice, ibrutinib 10 mg/kg PO, no co-treatment, mean (SD)
[24] = male, C57BL/6, mouse, 10 mg/kg, male wild-type C57BL/6 mice, ibrutinib 10 mg/kg PO, no co-treatment, mean (SD)
[25] = male, FVB, mouse, 10 mg/kg, male wild-type FVB mice, ibrutinib 10 mg/kg PO, co-treatment No Vehicle (cobicistat experiment), mean (SD)
[26] = male, FVB, mouse, 10 mg/kg, male wild-type FVB mice, ibrutinib 10 mg/kg PO, co-treatment None (ketoconazole experiment), mean (SD)
[27] = male, FVB, mouse, 10 mg/kg, male wild-type FVB mice, ibrutinib 10 mg/kg PO, co-treatment PEG400, mean (SD)
[28] = male, FVB, mouse, 10 mg/kg, male wild-type FVB mice, ibrutinib 10 mg/kg PO, co-treatment cobicistat, mean (SD)
[29] = male, FVB, mouse, 10 mg/kg, male wild-type FVB mice, ibrutinib 10 mg/kg PO, co-treatment corn oil, mean (SD)
[30] = male, FVB, mouse, 10 mg/kg, male wild-type FVB mice, ibrutinib 10 mg/kg PO, co-treatment ketoconazole, mean (SD)
[31] = female CYP3A(-/-) mice, co-treatment cobicistat
[32] = female CYP3A(-/-) mice, co-treatment corn oil
[33] = female wild-type FVB mice, co-treatment cobicistat
[34] = female wild-type FVB mice, co-treatment corn oil

For C=CC(=O)N1CCC[C@@H](n2nc(-c3ccc(Oc4ccccc4)cc3)c3c(N)ncnc32)C1 [Ibrutinib], the “ibrutinib AUC increase” value ([1]; CYP3A-/- mice compared with wild-type mice, oral ibrutinib) was “about 8 fold”, the “pharmacokinetic profile of ibrutinib with vs without cobicistat” value ([1]; CYP3A-/- mice, oral ibrutinib, P > 0.05) was “similar” and the “increase in exposure to ibrutinib” value ([1]; female wild-type mice, oral ibrutinib 10 mg/kg 30 minutes after oral ketoconazole 50 mg/kg vs vehicle) was “about 11 fold”. It also gave an AUC(0-t) [1, 7] of 1750 ng·h/mL, an AUC(0-t) [1, 8] of 1450 ng·h/mL and a Cmax [1, 7] of 1250 ng/mL. For the same compound, the Cmax [1, 8] was 1420 ng/mL, the AUC(0-t) [1, 9] was 2100 ng·h/mL and the AUC(0-t) [1, 10] was 2720 ng·h/mL. It also gave a Cmax [1, 9] of 2170 ng/mL, a Cmax [1, 10] of 1960 ng/mL and an AUC(0-t) [1, 11] of 1200 ng·h/mL. The Cmax [1, 11] was 589 ng/mL, the bioavailability ([1]; female, FVB, mouse, 4 mg/kg, female wild-type FVB mice, ibrutinib 4 mg/kg oral, cotreatment cobicistat 30 mg/kg) was 58% and the AUC(0-t) [1, 12] was 1660 ng·h/mL. For the same compound, the AUC(0-t) [1, 13] was 1410 ng·h/mL, the AUC(0-t) [1, 14] was 2350 ng·h/mL and the AUC(0-t) [1, 15] was 2600 ng·h/mL. It also gave an AUC(0-t) [1, 16] of 284 ng·h/mL, an AUC(0-t) [1, 17] of 768 ng·h/mL and an AUC(0-t) [1, 18] of 2250 ng·h/mL. It also gave an AUC(0-t) [1, 19] of 459 ng·h/mL, an AUC(0-t) [1, 20] of 8320 ng·h/mL and an AUC(0-t) [1, 21] of 301 ng·h/mL. For the same compound, the Cmax [1, 12] was 845 ng/mL, the Cmax [1, 13] was 1390 ng/mL and the Cmax [1, 14] was 1760 ng/mL. The Cmax [1, 15] was 1440 ng/mL, the Cmax [1, 16] was 292 ng/mL and the Cmax [1, 17] was 663 ng/mL. For the same compound, the Cmax [1, 18] was 925 ng/mL, the Cmax [1, 19] was 394 ng/mL and the Cmax [1, 20] was 3100 ng/mL. The Cmax [1, 21] was 430 ng/mL, the bioavailability ([1]; female, FVB, mouse, 10 mg/kg, female CYP3A-/- mice, ibrutinib 10 mg/kg oral, cotreatment cobicistat 30 mg/kg) was 32% and the bioavailability ([1]; female, FVB, mouse, 10 mg/kg, female CYP3A-/- mice, ibrutinib 10 mg/kg oral, cotreatment corn oil) was 27%. For the same compound, the bioavailability ([1]; female, FVB, mouse, 10 mg/kg, female CYP3A-/- mice, ibrutinib 10 mg/kg oral, no cotreatment) was 45%, the bioavailability ([1]; female, FVB, mouse, 10 mg/kg, female wild-type FVB mice, ibrutinib 10 mg/kg oral single dose, cotreatment cobicistat 30 mg/kg) was 50% and the bioavailability ([1]; female, FVB, mouse, 10 mg/kg, female wild-type FVB mice, ibrutinib 10 mg/kg oral single dose, cotreatment corn oil) was 5.5%. The bioavailability ([1]; female, FVB, mouse, 10 mg/kg, female wild-type FVB mice, ibrutinib 10 mg/kg oral, cotreatment cobicistat 30 mg/kg, steady-state) was 43%, the bioavailability ([1]; female, FVB, mouse, 10 mg/kg, female wild-type FVB mice, ibrutinib 10 mg/kg oral, cotreatment corn oil, steady-state) was 8.8% and the bioavailability ([1]; female, FVB, mouse, 10 mg/kg, female wild-type FVB mice, ibrutinib 10 mg/kg oral, no cotreatment) was 5.8%. The AUC(0-t) [1, 22] was 1710 ng·h/mL, the Cmax [1, 22] was 554 ng/mL and the bioavailability ([1]; female, FVB, mouse, 30 mg/kg, female wild-type FVB mice, ibrutinib 30 mg/kg oral, no cotreatment) was 11%. The “increase in ibrutinib AUC” value ([1]; cobicistat) was 7 fold, the “increase in ibrutinib AUC” value ([1]; ketoconazole) was 10 fold and the AUC(0-t) [1, 23] was 1770 ng·h/mL. It also gave an AUC(0-t) [1, 24] of 1390 ng·h/mL, a Cmax [1, 23] of 1630 ng/mL and a Cmax [1, 24] of 1380 ng/mL. The AUC(0-t) [1, 25] was 520 ng·h/mL, the AUC(0-t) [1, 26] was 429 ng·h/mL and the AUC(0-t) [1, 27] was 636 ng·h/mL. For the same compound, the AUC(0-t) [1, 28] was 4340 ng·h/mL, the AUC(0-t) [1, 29] was 663 ng·h/mL and the AUC(0-t) [1, 30] was 6640 ng·h/mL. It also gave a Cmax [1, 25] of 360 ng/mL, a Cmax [1, 26] of 404 ng/mL and a Cmax [1, 27] of 348 ng/mL. For the same compound, the Cmax [1, 28] was 1360 ng/mL, the Cmax [1, 29] was 243 ng/mL and the Cmax [1, 30] was 1260 ng/mL. For the same compound, the “systemic levels of ibrutinib” value ([1]; mice lacking OATP1B2 vs wild-type) was “not altered”, the “systemic levels of ibrutinib” value ([1]; mice lacking OATP2B1 vs wild-type) was “not altered” and the “increase in exposure to ibrutinib” value ([1]; wild-type mice, oral ibrutinib 10 mg/kg after cobicistat 30 mg/kg, single dose or steady-state (day 5)) was “about 9 fold”. The AUC(0-t) [2, 31] was 895 ng·h/mL, the AUC(0-t) [2, 32] was 1170 ng·h/mL and the AUC(0-t) [2, 33] was 1010 ng·h/mL. The AUC(0-t) [2, 34] was 521 ng·h/mL, the Cmax [2, 31] was 1440 ng/mL and the Cmax [2, 32] was 1860 ng/mL. For the same compound, the Cmax [2, 33] was 1540 ng/mL, the Cmax [2, 34] was 1410 ng/mL and the “increase in ibrutinib exposure” value ([2]; intravenous ibrutinib, CYP3A deficiency vs wild-type) was 2 fold. The “effect of cobicistat on exposure to ibrutinib” value ([2]; intravenous ibrutinib, CYP3A-/- mice) was “did not further increase exposure”, the “increase in ibrutinib exposure” value ([2]; intravenous ibrutinib, wild-type mice, oral cobicistat pretreatment vs vehicle) was 2 fold and the “IIV Ka” value ([3]; inter-individual variability) was 0.209. The “IIV Lag” value ([3]; inter-individual variability) was 0.0264, the “IIV Vc” value ([3]; inter-individual variability) was 0.167 and the “IIV Vp” value ([3]; inter-individual variability) was 0.295. The “Ka (absorption rate constant)” value [3] was 0.340 h⁻¹, the “Lag (lag time)” value [3] was 0.0324 h and the “RV IBU” value ([3]; residual variability) was 0.425. The pKa [4] was 3.78, the “fu, plasma” value [5] was 0.027 and the “experimentally observed increase in ibrutinib exposure” value ([6]; itraconazole-ibrutinib interaction, ref [8]) was 10 fold. The “increase in ibrutinib exposure predicted from a pharmacokinetic model” value ([6]; itraconazole-ibrutinib interaction, ref [23]) was 21 fold and the oral bioavailability ([6]; patients, ref [4, 5]) was less than 3%.

From article PMC8691714 (Cancer Research Communications, 2021)
